The values that follow come from patent US10543162B2 (Rutgers, The State University of New Jersey, priority 2015, dated 2020).

A short description of series [1]: Dienol (4) Log P determination by reverse-phase HPLC. Type of series: physicochemical. The following applies: for chromatographic logP: from HPLC log kw via calibration curve of reference samples' published Log Po,w, read-out: Calculated Log P Values; for Calculated kw: retention factor at 100% buffer, extrapolated from HPLC retention factors at MeOH:buffer 45:55→60:40, 25° C. The protocol:
Log P, partitioning coefficient of respective compounds between a hydrophilic (aqueous) and lipophilic (oil) phase, studies were conducted to investigate the relative hydrophobicity of Dienols (4). Using HPLC equipped with an XTerra reverse-phase C18 (RP18) 3.5 μm 4.6×150 mm column (Waters, Milford, Mass.) and Waters 2695 Separations Module, sample retention times were analyzed via a Waters 2487 Dual λ Absorbance Detector monitoring 254 and 270 nm. Mobile phases of HPLC grade methanol (MeOH) and 50 mM KH2PO4 with 1% formic acid in HPLC grade water were utilized at varying ratios (45:55→60:40) and run at 1 mL/min flow rate and 25° C. (Ayouni, et al., Chromatographia 2005, 62, (5-6), 251-255). All samples were first dissolved in DMSO and subsequently diluted with phosphate-buffer saline (PBS) to acquire 1% DMSO solutions and filtered through 0.22 μm PVDF syringe filters prior to autoinjection (20 μL).
Dienol retention factor (k) for each methanol concentration was calculated according to equation one, where tR and t0 are the retention times of the Dienols and dead time, as determined by the injection of sodium nitrate (Ayouni, et al., Chromatographia 2005, 62, (5-6), 251-255), respectfully. From the obtained retention factors the kw, retention factor at 100% buffer, was extrapolated. Hydroxybenzyl alcohol, benzyl alcohol, 2-phenylethanol, methylparaben, anisole, toluene, and thymol were used as reference samples and their retention times acquired. Using reference samples' published Log Po,w values (OECD Nuclear Energy Agency.; Organisation for Economic Co-operation and Development. In OECD guidelines for the testing of chemicals 117, Organisation for Economic Co-Operation and Development: Paris, 2004), a calibration curve was generated in which Log Po,w values were plotted on the y-axis whereas log kw values, obtained from the same method as above, were plotted on the x-axis (Ouimet, et al., Biomacromolecules 2015, 16, 2911-2919). Dienol Log P values were then calculated from the curve using equation 2. kw=(tR−t0)/t0 Equation 1 Log P=slope×log kw+y−intercept Equation 2
Thus, Dienol Log P values were extrapolated from an HPLC method to determine lipophilicity (OECD Nuclear Energy Agency.; Organisation for Economic Co-operation and Development. In OECD guidelines for the testing of chemicals 117, Organisation for Economic Co-Operation and Development: Paris, 2004). Retention factors (k) were calculated according to equation 1 for each concentration of MeOH and kw values extrapolated based off the retention times (Table 1).

Another series deals with 3T3 mouse fibroblasts. In words: Cytotoxicity / cytocompatibility (MTS cell viability). The series is classed as cell-based. As to conditions: 1000 μM, after 24 h. The protocol: In vitro cytocompatibility studies were performed by culturing 3T3 mouse fibroblasts in cell media (Dulbecco's Modified Eagle Medium supplemented with 10% Fetal Bovine Serum, 1% Penicillin Streptomycin, and 1% L-glutamate) containing the KA poly(carbonate-esters). Polymers (5a-5c, 6a-6e) and Dienols (4a-4e) were first sterilized under UV at λ=254 nm for 900 s (Spectronics Corporation, Westbury, N.Y.) and subsequently dissolved in DMSO to acquire a stock solution. The stock solution was then serial diluted with cell media. Cells were seeded in a 96-well plate at 2,000 cells/well in […]. Following incubation for 1 h, polymer-containing media in 1% DMSO, at concentrations capable of inhibiting tyrosinase (0.1 mg/mL, 0.01 mg/mL and 0.001 mg/mL) were added to allocated wells in a 96-well plate and incubated at 37° C. DMSO (1%) in cell media was used as a negative control.
Cell viability was determined using CellTiter 96® Aqueous One Solution Cell Proliferation Assay. After 24 h, 48 h, and 72 h incubation with polymers, 20 μL of (3-(4,5-dimethylthiazol-2-yl)-5-(3-carboxymethoxyphenyl)-2-(4-sulfophenyl)-2H-tetrazolium) (MTS) reagent was added to each well and further incubated for 4 h at 37° C. The absorbance was then recorded with a microplate reader (Coulter, Boulevard Brea, Calif.) at 490 nm. […]

With `O=C(CCC(=O)OCc1cc(=O)c(O)co1)OCc1cc(=O)c(O)co1` [Compound 4a, KA (succinic) Dienol], in series [1], the chromatographic logP was 0.353 and the Calculated kw is 0.806.

`O=C(CCCCC(=O)OCc1cc(=O)c(O)co1)OCc1cc(=O)c(O)co1` [Compound 4b, KA (adipic) Dienol]: in series [1], the chromatographic logP was 1.17 and the Calculated kw is 2.40.

As to `O=C(CCCCCCCC(=O)OCc1cc(=O)c(O)co1)OCc1cc(=O)c(O)co1` [Compound 4c, KA (Azelaic) Dienol], in series [1], the chromatographic logP was 2.59 and the Calculated kw is given as 16.0.

For `O=C(CCCCCCCCC(=O)OCc1cc(=O)c(O)co1)OCc1cc(=O)c(O)co1` [Compound 4d, KA (sebacic) Dienol], in series [1], the chromatographic logP was 3.1 and the Calculated kw was 31.6.

For `O=C(COCCOCCOCC(=O)OCc1cc(=O)c(O)co1)OCc1cc(=O)c(O)co1` [Compound 4e, KA (Tetraglycolic) Dienol], in series [1], the chromatographic logP is 0.235 and the Calculated kw is on record as 0.688.

In the case of `O=c1cc(CO)occ1O` [Kojic Acid, 5-Hydroxy-2-(hydroxymethyl)-4-pyrone], in the series with 3T3 mouse fibroblasts, the cytocompatibility result was “slightly cytotoxic”.
